Experimental data from patent US9468209B2, “Method for eradicating weeds with derivatives of 3-acetyl-5-sec-butyl-4-hydroxy-3-pyrrolin-2-one” (priority 2012, dated 2016).

Legend:
Crofton weed = test: Needle puncture pathogenic test on slightly wounded leaf of Crofton weed; format: in vivo; conditions: for Avg. diameter of the spot after 24 h / Time of disease spot to occur / Time of Disease spot / Average diameter of spot after 24 h: Crofton weed leaf; for Avg. diameter of the spot after 24 h / Time of disease spot to occur: analogs with formula (I) and (II); for Time of Disease spot / Average diameter of spot after 24 h / Time / Average diameter of the damage spot after 24 h: 50 μg/mL, 25° C., natural light; for Time / Average diameter of the damage spot after 24 h: salts, Crofton weed
Method: 3-acetyl-5-sec-butyl-4-hydroxy-3-pyrrolin-2-one analogs were dissolved in a small amount of methanol and diluted with water to a concentration of 5-100 μg/g. A pathogenic test was conducted by placing the toxic liquid on the slightly wounded leaf of Crofton weed with a needle. The test has shown that the pathogenic capability of 3-acetyl-5-sec-butyl-4-hydroxy-3-pyrrolin-2-one analogs with respect to Crofton weed increases with the increase of concentration. The spot diameter caused on the leaf of Crofton weed after 24 hours was 2 mm at 50 μg/g.
3-acetyl-5-sec-butyl-4-hydroxy-3-pyrrolin-2-one analogue (Table 3, compounds 10-57) was dissolved in small amount of methanol. The solution was then diluted with distilled water to a concentration of 50 μg/mL. Methanol solution with same concentration and pure distilled water were used as control of the experiment. A pathogenic test was conducted by placing the toxic liquid on the slightly wounded leaf of Crofton weed with a needle. The experiment was carried out at 25° C. under the natural light and each test was repeated 6 times. It was measure the diameter of the spot after 24 h. […] The size of the side chain also has an effect on their activity.
Fourteen salts of 3-acetyl-5-sec-butyl-4-hydroxy-3-pyrrolin-2-one analogs were dissolved in small amount of methanol and diluted with distilled water to a concentration of 50 μg/mL. Methanol/water mixture was also prepared and used as control. Needle puncture method was used for the test on the small pieces of Crofton weed. Each treatment was repeated six times or more. The test samples were kept under natural light at 25° C. for 24 hours. The diameters of damaged spot of the plant leaves were measured by vernier caliper.

Hill reaction = Hill reaction activity of treated Crofton weed leaves; format: biochemical; conditions: 50 μg/mL, strong light 12 hours
Method: (§1) Compounds 10-57 were dissolved in small amount of methanol. The solutions were then diluted with distilled water to a concentration of 50 μg/mL. A mixture of methanol and water in the same ratio as the sample solution was also prepared and used as control in the experiment. The healthy leaves of Crofton weed were washed in water for 30 minutes and then rinsed with distilled water. The clean and tissue dried leaves were placed in petri dish with the back-side of the leaves facing up. Wet filter paper was also placed in the in petri dish for moisture control. Water, methanol and chemical solutions of the analogues were applied to the back-side of each leaf. Test sample was then placed in vacuum chamber at 25° C. for 15 min followed by exposure to the strong light (400 μM m^−2 s^−1) for 12 hours. The leaf sample went through a series of test, and the Hill reaction rate, the electron transfer activity and fluorescence of chlorophyll were measured. Four leaves were used for each treatment and each test was repeated three times.

photosystem II = test: PSII oxygen evolution / electron transfer activity of treated Crofton weed leaves; format: biochemical; conditions: 50 μg/mL, strong light 12 hours
Method: as §1

[1] = test system: fluorescence of chlorophyll; test: Fluorescence of chlorophyll of treated Crofton weed leaves; format: biochemical; conditions: 50 μg/mL, strong light 12 hours
Method: as §1

Row | Compound | Avg. diameter of the spot after 24 h (Crofton weed) | Time of disease spot to occur (Crofton weed) | Activity of Hill Reaction (Hill reaction) | PSII Activity of oxygen evolution (photosystem II) | Fv/Fm [1] | Time of Disease spot (Crofton weed) | Average diameter of spot after 24 h (Crofton weed) | Time (Crofton weed) | Average diameter of the damage spot after 24 h (Crofton weed)
1 | CCC1=C(O)C(C(C)CC)NC1=O (centres unmarked) [Compound 4] | 2.97 ± 0.01 mm | 18.5 ± 1.55 h | 51.13 uMO2/mgChlh | 28.01 uMO2/mgChlh | 0.83 | – | – | – | –
2 | CCOC1=C(O)C(C(C)CC)NC1=O (centres unmarked) [Compound 5] | 2.35 ± 0.14 mm | 20.7 ± 0.75 h | 52.31 uMO2/mgChlh | 24.10 uMO2/mgChlh | 0.82 | – | – | – | –
3 | CCC(C)C1NC(=O)C(CCc2ccccc2)=C1O (centres unmarked) [Compound 6] | 2.12 ± 0.08 mm | 21.2 ± 3.85 h | 50.04 uMO2/mgChlh | 27.11 uMO2/mgChlh | 0.81 | – | – | – | –
4 | CCC(C)C1NC(=O)C(NCCCCl)=C1O (centres unmarked) [Compound 8] | 2.53 ± 0.18 mm | 20.0 ± 1.51 h | 49.05 uMO2/mgChlh | 24.65 uMO2/mgChlh | 0.79 | – | – | – | –
5 | CCC(=O)NC1=C(O)C(C(C)CC)NC1=O (centres unmarked) [Compound 9] | 2.80 ± 0.33 mm | 21.9 ± 2.00 h | 50.12 uMO2/mgChlh | 23.33 uMO2/mgChlh | 0.83 | – | – | – | –
6 | CC(=O)C1=C(O)CNC1=O [Compound 10] | – | – | 84.32 uMO2/mgChlh | 47.55 uMO2/mgChlh | 0.79 | 29 ± 6.30 h | 1.11 ± 0.16 mm | – | –
7 | CC(=O)C1=C(O)C(C)NC1=O (centres unmarked) [Compound 11] | – | – | 80.00 uMO2/mgChlh | 46.41 uMO2/mgChlh | 0.82 | 21.5 ± 0 h | 1.80 ± 0.41 mm | – | –
8 | CCC1NC(=O)C(C(C)=O)=C1O (centres unmarked) [Compound 12] | – | – | 70.32 uMO2/mgChlh | 34.54 uMO2/mgChlh | 0.83 | 15.2 ± 0.35 h | 2.77 ± 0.23 mm | – | –
9 | CCCC1NC(=O)C(C(C)=O)=C1O (centres unmarked) [Compound 13] | – | – | 78.19 uMO2/mgChlh | 41.35 uMO2/mgChlh | 0.85 | 16.70 ± 0.21 h | 5.21 ± 0.44 mm | – | –
10 | CCCCCCCC1NC(=O)C(C(C)=O)=C1O (centres unmarked) [Compound 17] | – | – | 57.13 uMO2/mgChlh | 27.04 uMO2/mgChlh | 0.82 | 9.5 ± 2.36 h | 7.94 ± 1.30 mm | – | –
11 | CCCCCCCCC1NC(=O)C(C(C)=O)=C1O (centres unmarked) [Compound 18] | – | – | 67.27 uMO2/mgChlh | 39.98 uMO2/mgChlh | 0.80 | 12.00 ± 0.48 h | 8.27 ± 0.61 mm | – | –
12 | CC(=O)C1=C(O)C(Cc2ccccc2)NC1=O (centres unmarked) [Compound 19] | – | – | 63.43 uMO2/mgChlh | 40.07 uMO2/mgChlh | 0.79 | 24 ± 4.00 h | 1.24 ± 0.10 mm | – | –
13 | CCCC(c1ccccc1)C1NC(=O)C(C(C)=O)=C1O (centres unmarked) [Compound 20] | – | – | 57.23 uMO2/mgChlh | 43.40 uMO2/mgChlh | 0.82 | 21.1 ± 3.56 h | 1.57 ± 0.04 mm | – | –
14 | CC=CC1NC(=O)C(C(C)=O)=C1O (centres unmarked) [Compound 21] | – | – | 62.34 uMO2/mgChlh | 42.25 uMO2/mgChlh | 0.77 | 16.5 ± 1.30 h | 2.89 ± 0.14 mm | – | –
15 | CC(=O)C1=C(O)C(C)(C)NC1=O [Compound 22] | – | – | 56.16 uMO2/mgChlh | 38.05 uMO2/mgChlh | 0.82 | 20.0 ± 1.63 h | 1.76 ± 0.24 mm | – | –
16 | CCCCC1(C)NC(=O)C(C(C)=O)=C1O (centres unmarked) [Compound 29] | – | – | – | – | – | 12.1 ± 3.75 h | 5.77 ± 1.15 mm | – | –
17 | CCCC(C)C1NC(=O)C(C(C)=O)=C1O (centres unmarked) [Compound 31] | – | – | – | – | – | 10.8 ± 2.00 h | 5.93 ± 1.35 mm | – | –
18 | CC(=O)C1=C(O)C(CCC(=O)O)NC1=O (centres unmarked) [Compound 35] | – | – | – | – | – | 26.4 ± 0.12 h | 1.27 ± 0.02 mm | – | –
19 | CC(=O)C1=C(O)C(CC(N)=O)NC1=O (centres unmarked) [Compound 36] | – | – | – | – | – | 21.9 ± 0.23 h | 1.54 ± 0.07 mm | – | –

Row | Compound | Avg. diameter of the spot after 24 h (Crofton weed) | Time of disease spot to occur (Crofton weed) | Activity of Hill Reaction (Hill reaction) | PSII Activity of oxygen evolution (photosystem II) | Fv/Fm [1] | Time of Disease spot (Crofton weed) | Average diameter of spot after 24 h (Crofton weed) | Time (Crofton weed) | Average diameter of the damage spot after 24 h (Crofton weed)
20 | CC(=O)C1=C(O)C(CCC(N)=O)NC1=O (centres unmarked) [Compound 37] | – | – | – | – | – | 24 ± 0.08 h | 1.64 ± 0.25 mm | – | –
21 | CCC(=O)C1=C(O)C(C(C)CC)NC1=O (centres unmarked) [Compound 42] | – | – | – | – | – | 19.4 ± 2.50 h | 2.24 ± 0.45 mm | – | –
22 | CCC(C)C1NC(=O)C(C(=O)NCc2ccccc2)=C1O (centres unmarked) [Compound 49] | – | – | – | – | – | 23.2 ± 2.86 h | 2.47 ± 0.08 mm | – | –
23 | CCC1NC(=O)C(C(C)=O)=C1O.[K] (centres unmarked) [f, Potassium salt of 3-acetyl-5-ethyl-4-hydroxy-1H-pyrrol-2(5H)-one] | – | – | – | – | – | – | – | 14.2 ± 2.00 h | 3.72 ± 0.28 mm
24 | CCCC(C)C1NC(=O)C(C(C)=O)=C1[O-].[Na+] (centres unmarked) [m, Sodium salt of 3-acetyl-4-hydroxy-5-(Pentan-2-yl)-1H-pyrrol-2(5H)-one] | – | – | – | – | – | – | – | 8.5 ± 2.00 h | 8.27 ± 1.72 mm
25 | Ammonium salt of 3-acetyl-5-ethyl-4-hydroxy-1H-pyrrol-2(5H)-one | – | – | – | – | – | – | – | 10.3 ± 1.50 h | 4.97 ± 1.01 mm
26 | Calcium salt of 3-acetyl-5-ethyl-4-hydroxy-1H-pyrrol-2(5H)-one [g] | – | – | – | – | – | – | – | 18.7 ± 3.00 h | 2.29 ± 0.19 mm
27 | Copper salt of 3-acetyl-5-ethyl-4-hydroxy-1H-pyrrol-2(5H)-one | – | – | – | – | – | – | – | 21.6 ± 3.05 h | 1.22 ± 0.25 mm
28 | Iron salt of 3-acetyl-5-ethyl-4-hydroxy-1H-pyrrol-2(5H)-one [k] | – | – | – | – | – | – | – | 17.2 ± 0.95 h | 1.72 ± 0.15 mm
29 | Magnesium (II) salt of 3-acetyl-5-ethyl-4-hydroxy-1H-pyrrol-2(5H)-one | – | – | – | – | – | – | – | 17.5 ± 1.50 h | 2.88 ± 0.10 mm
30 | Manganese salt of 3-acetyl-5-ethyl-4-hydroxy-1H-pyrrol-2(5H)-one [i] | – | – | – | – | – | – | – | 14.3 ± 3.15 h | 3.24 ± 0.33 mm
31 | Sodium salt of 3-acetyl-4-hydroxy-1H-pyrrol-2(5H)-one | – | – | – | – | – | – | – | 26 ± 7.30 h | 1.34 ± 0.08 mm
32 | Sodium salt of 3-acetyl-4-hydroxy-5-(prop-1-enyl)-1H-pyrrol-2(5H)-one | – | – | – | – | – | – | – | 16.8 ± 1.85 h | 2.42 ± 0.05 mm
33 | Sodium salt of 3-acetyl-4-hydroxy-5-methyl-1H-pyrrol-2(5H)-one [b] | – | – | – | – | – | – | – | 19.5 ± 0.5 h | 2.21 ± 0.18 mm
34 | Sodium salt of 3-acetyl-4-hydroxy-5-propyl-1H-pyrrol-2(5H)-one | – | – | – | – | – | – | – | 10.2 ± 2.50 h | 5.07 ± 0.11 mm
35 | Sodium salt of 3-acetyl-5-ethyl-4-hydroxy-1H-pyrrol-2(5H)-one | – | – | – | – | – | – | – | 14.5 ± 1.8 h | 3.11 ± 0.54 mm
36 | Zinc salt of 3-acetyl-4-hydroxy-5,5-dimethyl-1H-pyrrol-2(5H)-one | – | – | – | – | – | – | – | 18.2 ± 2.50 h | 2.63 ± 0.06 mm
37 | Zinc salt of 3-acetyl-5-ethyl-4-hydroxy-1H-pyrrol-2(5H)-one [j] | – | – | – | – | – | – | – | 15.1 ± 4.00 h | 2.91 ± 0.02 mm
